In PMC10702411 (Nature structural & molecular biology, 2023):

Key:
RIPK1 = RIPK1 ubiquitination and Ser166 phosphorylation; format: cell-based, human; settings: 100 nM LCL161, 5 min (ubiquitination) or 4 h; n = 4
FAS DISC in TCM = experiment: FAS DISC coimmunoprecipitation, TCM; format: cell-based, human; settings: 100 nM LCL161, 4 h, co-IP, n = 4
TCM = experiment: apoptosis / cell death read-outs, uninfected TCM; format: cell-based, human; settings: LCL161, 4 h
human glioma LN18 cells = experiment: MTT survival assay, LN18; format: cell-based; settings: LCL161 and/or TNF, 24 h, three independent biological replicates
[1] = cited from earlier work
cancer cells = settings: cited from earlier work
BIRC2 and BIRC3 in TCM = experiment: western blot of BIRC2 and BIRC3, uninfected TCM; format: cell-based, human; settings: uninfected cells (TCM), 100 nM LCL161, 4 h; n = 4
[2] = test system: mouse embryonic fibroblasts (MEFs); experiment: MTT survival assay, MEF; format: cell-based; settings: LCL161 and/or TNF, 24 h, three independent biological replicates
[3] = test system: BIRC2 and BIRC3 in HIV-TCM; experiment: western blot of BIRC2 and BIRC3, HIV-TCM; format: cell-based, human; settings: 100 nM LCL161, 4 h, n = 4
[4] = test system: caspase-3 and PARP1 in HIV-TCM; experiment: western blot of caspase-3 and PARP1, HIV-TCM; format: cell-based, human; settings: 100 nM LCL161, 4 h, n = 4
HIV-TCM [5] = experiment: HIV-1 p24 antigen release; format: cell-based; settings: Supplementary Fig. 7c,d
HIV-TCM [6] = experiment: LDH release assay, HIV-TCM; format: cell-based, human; settings: LCL161, 4 h, n = 4
HIV-TCM [7] = experiment: annexin V / propidium iodide flow cytometry, HIV-TCM; format: cell-based, human; settings: LCL161, Supplementary Fig. 8
HIV-TCM [8] = experiment: Cell Death Detection ELISA, HIV-TCM; format: cell-based, human; settings: LCL161, 4 h, n = 4
[9] = test system: IFNγ stimulated ex vivo differentiated monocyte-derived macrophages; experiment: cytokine antibody array, macrophages; format: cell-based, human; settings: 10 μM embelin, IFNγ 24 h, supernatants; array in duplicate
BIRC2BIR3 = BIRC2BIR3 (Homo sapiens, UniProt Q13490); experiment: X-ray crystal structure of BIRC2BIR3 complex; format: binding; settings: Supplementary Fig. 2
BIRC2BIR3, sequence (Q13490 261-346): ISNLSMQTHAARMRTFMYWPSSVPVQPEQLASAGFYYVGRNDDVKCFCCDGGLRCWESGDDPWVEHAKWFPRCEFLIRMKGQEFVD

BIRC2_3BIR D234A/D320A = experiment: pulldown, BIRC2_3BIR D234A/D320A; format: binding, human; settings: D234A/D320A concurrently, performed twice
[10] = test system: D320A and E325A mutants of BIRC2BIR3; experiment: NMR and pulldown, BIRC2BIR3 D320A and E325A mutants; format: binding, human; settings: NMR and pulldown (performed twice)
[11] = test system: D234A and E239A mutants of BIRC2BIR2; experiment: NMR and pulldown, BIRC2BIR2 D234A and E239A mutants; format: binding, human; settings: NMR and pulldown (performed twice)

CN[C@@H](C)C(=O)N[C@H](C(=O)N1CCC[C@H]1c1nc(C(=O)c2ccc(F)cc2)cs1)C1CCCCC1 [LCL161]
RIPK1 deubiquitination, phosphorylation and activation (RIPK1): deubiquitination and Ser166 phosphorylation and thus activation of RIPK1 | association of FADD, cFLIPS and Ser166 phosphorylated RIPK1 with FAS (FAS DISC in TCM): did not associate with FAS | apoptosis / LDH release in uninfected cells (TCM): not in the uninfected cells | sensitization to killing by TNF (human glioma LN18 cells): sensitized mouse embryonic fibroblasts (MEFs) and human glioma LN18 cells to killing by TNF | antiproliferation and bioavailability properties ([1]; among SMAC mimetic compounds): one of the most promising antiproliferation and bioavailability properties | pharmacological properties [1]: favorable pharmacological properties | toxicity [1]: minor toxicity | anticancer activity (cancer cells; at least two dozen tumor types): potent anticancer activity in at least two dozen tumor types | sensitization of cancer cells to chemotherapy (cancer cells; with cisplatin and vincristine): sensitizes cancer cells to conventional chemotherapy with cisplatin and vincristine | degradation of BIRC2 and BIRC3 (BIRC2 and BIRC3 in TCM): induced the rapid degradation of BIRC2 and BIRC3 | sensitization to killing by TNF [2]: sensitized mouse embryonic fibroblasts (MEFs) and human glioma LN18 cells to killing by TNF | degradation of BIRC2 and BIRC3 [3]: induced the rapid degradation of BIRC2 and BIRC3 | caspase-3 cleavage [4]: cleavage of caspase-3 | HIV-1 p24 antigen release (HIV-TCM [5]): not accompanied by an increase in HIV-1 p24 antigen release | LDH release (HIV-TCM [6]): increase in lactate dehydrogenase (LDH) release | phosphatidylserine translocation (HIV-TCM [7]): translocation of phosphatidylserine from the inner to the outer leaflet | plasma membrane permeabilization (HIV-TCM [7]): permeabilization of the plasma membrane | cytoplasmic histone-associated DNA fragments (HIV-TCM [8]): increase in cytoplasmic histone-associated DNA fragments

CCCCCCCCCCCC1=C(O)C(=O)C=C(O)C1=O [embelin]
interleukin-6 (IL-6) level [9]: increase of interleukin-6 (IL-6)

ATPF [caspase-9]
binding site in overlay of structures (BIRC2BIR3): occupy the same binding site of BIRC2BIR3

AVPI [SMAC]
binding site in overlay of structures (BIRC2BIR3): occupy the same binding site of BIRC2BIR3

H3: N terminus of H3 (residues 1–22 of H3), histone peptide in pulldowns
binding to double mutant of triple BIR (BIRC2_3BIR D234A/D320A): disrupt binding | binding to mutant domain [10]: abrogated binding | binding to mutant domain [11]: abrogated binding

H3T3ph: H3 peptide with phosphorylation of Thr3
binding to mutant domain [10]: abrogated binding | binding to mutant domain [11]: abrogated binding
